Entries after “also recorded” stand apart in the source; their conditions may differ.
What was measured:
[1] = system: ERα Y537S; experiment: ERE-Luciferase activity of ERα Y537S in T47D cells; format: cell-based, human
Method: FIG. 6 is a histogram depicting Dip G- and Dip G-D1-inhibited E2-dependent ERE-Luciferase activities of wildtype ERα or ERα Y537S in T47D cells. Cells were co-treated with 10 nM E2 and Dip G or Dip G-D1 (10 μM) for 24 hrs. The experiments were performed in triplicate. Data are represented as mean±SD, n=3.
See Merenbakh-Lamin, K., Ben-Baruch, N., Yeheskel, A., Dvir, A., Soussan-Gutman, L., Jeselsohn, R., Yelensky, R., Brown, M., Miller, V. A., Sarid, D. et al. (2013) “D538G mutation in estrogen receptor-alpha: A novel mechanism for acquired endocrine resistance in breast cancer,” Cancer research, 73:6856-6864 and Jeselsohn, R., Yelensky, R., Buchwalter, G., Frampton, G., Meric-Bernstam, F., Gonzalez-Angulo, A. M., Ferrer-Lozano, J., Perez-Fidalgo, J. A., Cristofanilli, M., Gomez, H. et al. (2014) “Emergence of constitutively active estrogen receptor-alpha mutations in pretreated advanced estrogen receptor-positive breast cancer,” Clinical cancer research: an official journal of the American Association for Cancer Research, 20:1757-1767. Using these ERα mutant expressing cell lines, we will: (a) compare ERα degradation rate induced by fulvestrant, Dip G and Dip G-D1 using ELISA assay as shown in FIG. 5; (b) measure IC50 of Dip G and Dip G analogues to inhibit ERα transcriptional activity in luciferase assay.

[2] = system: ERα; experiment: ERα transcriptional activity in MCF7 cells; format: cell-based, human
[3] = system: estrogen receptor α (ERα); experiment: Western blot of ERα levels in MCF7 cells; format: cell-based, human
Method: FIGS. 1A, 1B, and 1C together depict the biological activity of the subject compounds on estrogen receptor α (ERα) levels in human breast cancer cells.
The biological activity of these four analogs were then compared with the parent compound Dip G following our previous protocol (Zhao et al., supra). See FIGS. 1A, 1B, 1C, 2A, 2B, and 2C. Cells were treated with each compound at 10 μM concentration in order to evaluate how well each modified the stability of ERα and ERβ.
MCF7 cells were treated with Dip G and analogs for 24 hours before harvesting. Hs578T-tet-on-ERβ cells (ATCC HTB-126; American Type Culture Collection, Manassas, Va.) were treated with doxycycline for 24 hours to induce ERβ expression. Then the cells were treated with compounds for 5 days before harvesting. 15 μg of total cell lysates were resolved on SDS-PAGE and Western blot analyses were performed as previously described using ERα antibody (HC-20, Santa Cruz Biotechnology, Inc., Dallas, Tex.) and anti-FLAG antibody (F7425, Sigma-Aldrich Co., LLC, St. Louis, Mo.) for ERβ.^3

[4] = molecular target: T1, CHIP ubiquitin E3 ligase (Homo sapiens, UniProt Q9UNE7); conditions: Zhao et al. 2015; cited from earlier work
T1 sequence (Q9UNE7 1-303): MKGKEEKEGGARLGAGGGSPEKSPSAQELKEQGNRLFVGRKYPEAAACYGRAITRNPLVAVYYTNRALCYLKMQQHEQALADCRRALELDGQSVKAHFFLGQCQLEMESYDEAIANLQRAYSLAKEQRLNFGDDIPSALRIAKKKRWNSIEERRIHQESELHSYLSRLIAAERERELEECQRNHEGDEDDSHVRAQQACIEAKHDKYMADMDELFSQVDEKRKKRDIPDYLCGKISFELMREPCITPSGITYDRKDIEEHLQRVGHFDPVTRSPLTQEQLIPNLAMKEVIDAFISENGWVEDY

[5] = system: murine leukemia P-388 cells; conditions: cited from earlier work

SMILES: O=C1c2c(O)cc(O)cc2-c2c(-c3ccc(O)cc3)oc3cc(O)cc1c23 [Dip G, diptoindonesin G]
- E2-dependent ERE-Luciferase activity of ERα Y537S ([1]; T47D cells, co-treated with 10 nM E2, 10 μM, 24 hrs): inhibited
- ligand-independent transcription activity of ERα Y537S mutant ([1]; T47D expressing ERα Y537S, preliminary data): can be inhibited
- ERα transcriptional activity [2]: decreases ERα transcriptional activity
- amount of endogenous ERα in MCF7 cells ([3]; 10 μM, compared to untreated cells, gel blot FIG. 4): degrades endogenous ERα; also recorded: greatly decreased
- ERα stability ([3]; MCF7 cells, 10 μM, 24 hours, Western blot): decreased ERα stability with the largest change
- endogenous ERα protein levels ([3]; MCF7 cells, FIG. 4): less than 20%
- target E3 ubiquitin ligase CHIP (STUB1) [4]: found to target
- anti-proliferation effect [5]: anti-proliferation effect

Reference: patent publication US10508092B2, “Synthesis of novel analogs of diptoindonesin G, compounds formed thereby, and pharmaceutical compositions containing them” (Wisconsin Alumni Research Foundation, priority 2016, dated 2019)
